“And” between values parts separate entries of the source, which are not always exact repeats. Identical values can stand only once.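 How tested: cells in 96-well plates exposed to compound for 48 hours at five concentrations. At the GI50, growth is halved. At the TGI there is no net growth.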
Experiments:
Test in all cases: NCI-60 cell line screen, 48 h
A498 renal = system: A498 renal
BT-549 breast = system: BT-549 breast
IGROV1 ovarian = system: IGROV1 ovarian
NCI-H23 lung = system: NCI-H23 lung
NCI/ADR-RES ovarian = system: NCI/ADR-RES ovarian
SF-295 CNS = system: SF-295 CNS
SK-OV-3 ovarian = system: SK-OV-3 ovarian
SW-620 colon = system: SW-620 colon
U251 CNS = system: U251 CNS
UO-31 renal = system: UO-31 renal

Compound	GI50 (A498 renal)	TGI (A498 renal)	GI50 (BT-549 breast)	TGI (BT-549 breast)	GI50 (IGROV1 ovarian)	TGI (IGROV1 ovarian)	GI50 (NCI-H23 lung)	TGI (NCI-H23 lung)	GI50 (NCI/ADR-RES ovarian)	TGI (NCI/ADR-RES ovarian)	GI50 (SF-295 CNS)	TGI (SF-295 CNS)	GI50 (SK-OV-3 ovarian)	TGI (SK-OV-3 ovarian)	GI50 (SW-620 colon)	TGI (SW-620 colon)	GI50 (U251 CNS)	TGI (U251 CNS)	GI50 (UO-31 renal)	TGI (UO-31 renal)
COC(=O)c1ccc(-c2nc3cc(Cl)c(Cl)cc3nc2C#N)cc1	> 100 µM	> 100 µM	> 100 µM	> 100 µM	> 100 µM	> 100 µM	> 100 µM	> 100 µM	> 100 µM	> 100 µM	> 100 µM	> 100 µM	> 100 µM	> 100 µM	> 100 µM	> 100 µM	42 µM	> 100 µM	> 100 µM	> 100 µM
CNC(=O)Nc1nc2ccc([N+](=O)[O-])cc2[nH]1	–	> 100 µM	–	> 100 µM	–	> 100 µM	–	> 100 µM	–	> 100 µM	–	> 100 µM	–	> 100 µM	–	> 100 µM	–	> 100 µM	–	> 100 µM
O=C(O)CN(CC(=O)O)Cc1cc(C#Cc2ccc(C#Cc3ccccc3)cc2)cc(CN(CC(=O)O)CC(=O)O)n1	–	> 100 µM	–	66.6 µM	–	78.1 µM	–	> 89.7 µM	–	35.6 µM	–	> 88.9 µM	–	> 100 µM	–	> 68 µM	–	57.6 µM	–	> 79.7 µM
O=c1[nH]nnc2c1ncn2C1OC(CO)C(O)C1O (stereo not given)	61.3 µM	> 100 µM	> 100 µM	> 100 µM	2.96 µM	> 100 µM	14.5 µM	> 100 µM	7.74 µM	> 100 µM	1.65 µM	47 µM	0.881 µM	> 100 µM	10.6 µM	> 100 µM	41.5 µM	> 100 µM	3.18 µM	> 100 µM
CC[C@@H]1c2c(C#N)ncn2-c2cnc(Nc3ccc(C(=O)NC4CCN(C5CCN(CC6CC6)CC5)CC4)cc3OC)nc2N1C1CCCC1	0.174 µM and 0.308 µM	1.17 µM and 1.57 µM	0.485 µM	1.85 µM	0.0358 µM	1.36 µM	0.0374 µM	1.38 µM	1.29 µM	2.8 µM	0.0454 µM	1.94 µM	0.0384 µM and 0.122 µM	1.04 µM and 1.64 µM	0.0308 µM and 0.0327 µM	1.76 µM and 1.78 µM	0.042 µM	1.48 µM	1.36 µM	2.69 µM
CCCCCCCCNc1cc2c3c(c1)CCCN3CCC2	4.2 µM	18.7 µM	2.28 µM	12.3 µM	1.77 µM	8.3 µM	1.79 µM	18.1 µM	19.7 µM	> 100 µM	2.31 µM	10.8 µM	2.36 µM	7.96 µM	2.14 µM	13.3 µM	0.39 µM	15.1 µM	3.17 µM	17.7 µM
CCOC(=O)N1CCN(/[N+]([O-])=N/Oc2ccc([N+](=O)[O-])cc2[N+](=O)[O-])CC1	17.5 µM	35.6 µM	2.62 µM	18.6 µM	9.04 µM	30.2 µM	1.82 µM	3.69 µM	3.88 µM	14.9 µM	1.73 µM	4.56 µM	5.61 µM	18.4 µM	0.434 µM	35.7 µM	1.55 µM	21.5 µM	10.6 µM	23.3 µM

Reference: PubChem BioAssay (NCI)
